Test results reported in paper PMC12471299, “Secondary Metabolites of the Marine Sponge-Derived Fungus Aspergillus subramanianii 1901NT-1.40.2 and Their Antimicrobial and Anticancer Activities” (Marine Drugs, 2025).
Read-outs that look alike come from different tables or passages of the source.

Legend:
Candida albicans KMM 455 [1] = assay: Antimicrobial assay, growth inhibition (optical density); format: cell-based
Description: (§1) The Gram-positive bacterial Staphylococcus aureus ATCC 21027, Gram-negative bacterial Escherichia coli VKPM (B-7935), and yeast-like fungal Candida albicans KMM 455 strains were fermented on solid medium Mueller Hinton broth with agar (16.0 g/L) in a Petri dish at 37 °C for 24 h. The antimicrobial activity of the compound was tested at concentrations ranging from 100 µM and lower. The effect of the compound on bacterial growth was estimated as described by. Gentamicin and amphotericin B were used as positive controls against S. aureus, E. coli, and C. albicans, and a 1% dimethyl sulfoxide (DMSO) solution in PBS was used as a negative control. The optical density of the bacterial suspension after 18 h was measured at λ = 620 nm. The effect of the compound on biofilm formation for 18 h was tested using MTT reagent (Sigma-Aldrich, St. Louis, MO, USA) in accordance with. The optical density of the obtained solution was measured at λ = 570 nm. A Multiskan FS spectrophotometer (Thermo Scientific Inc., Beverly, MA, USA) was used for both assays. The results were calculated as percentages of the control data and presented as minimal concentrations reduced by 50% of growth or biofilm formation (MIC50).

[2] = system: Escherichia coli VKPM (B-7935); assay: as above; format: cell-based
Description: as §1

[3] = system: Staphylococcus aureus ATCC 21027; assay: as above; format: cell-based
Description: as §1

Candida albicans KMM 455 [4] = assay: Biofilm formation assay (MTT); format: cell-based
Description: as §1

[5] = system: Escherichia coli VKPM (B-7935); assay: Biofilm formation assay (MTT); format: cell-based
Description: as §1

[6] = system: Staphylococcus aureus ATCC 21027; assay: Biofilm formation assay (MTT); format: cell-based
Description: as §1

[7] = Cell viability assay (MTT); format: cell-based, rat; conditions: rat, H9c2 cardiomyocytes, read-out: Cytotoxicity IC50
From the text: (§2) Rat cardiomyocyte H9c2 cells were kindly provided by Prof. Dr. Gunhild von Amsberg from the Martini-Klinik Prostate Cancer Center, University Hospital Hamburg-Eppendorf, Hamburg, Germany. The human HaCaT keratinocyte cell line was kindly provided by Prof. N. Fusenig (Cancer Research Centre, Heidelberg, Germany). Non-cancerous human breast epithelial MCF-10A cells were kindly provided by Dr. Irina Zhitnyak (N. N. Blokhin National Medical Research Center of Oncology, Moscow, Russia). Human breast cancer MCF-7 HTB-22 and MDA-MB-231 cells were obtained from the ATTC (Manassas, VA, USA).
(§3) H9c2 and HaCaT cells were cultured in DMEM with 10% fetal bovine serum and 1% penicillin/streptomycin (BioloT, St. Petersburg, Russia). MCF-7 and MDA-MB-231 cells were cultured in MEM (BioloT, St. Petersburg, Russia) with 10% fetal bovine serum (FBS) and 1% penicillin/streptomycin (BioloT, St. Petersburg, Russia). MCF 10A cells were cultured in DMEM F12 medium (BioloT, St. Petersburg, Russia) supplemented with 20% FBS, 20 ng/mL hrEGF (Sci-Store, Moscow, Russia), and 1% penicillin/streptomycin (BioloT, St. Petersburg, Russia). All cells were cultured at 37 °C in a humidified atmosphere containing 5% CO2.
(§4) H9c2 cells were seeded at a concentration of 3 × 10^3 cells/well. MCF-10A, MCF-7, and MDA-MB-231 cells were seeded at 5 × 10^3 cells/well, and HaCaT cells were seeded at 1 × 10^4 cells/well. The experiments were initiated after 24 h.
(§5) Compounds at concentrations up to 100 µM were added to the wells for 24h or 48 h, and the viability of the cells was measured using an MTT (3-(4,5-dimethylthiazol-2-yl)-2,5-diphenyltetrazolium bromide) assay, which was performed according to the manufacturer’s instructions (Sigma-Aldrich, Munich, Germany). […] DMSO was used as a control. The results are presented as percentages of the control data.

H9c2 cardiomyocytes = assay: Cell viability assay (MTT); format: cell-based, rat
From the text: as §2, §3, §4, §5

[8] = Cell viability assay (MTT); format: cell-based, human; conditions: human, read-out: Cytotoxicity IC50
From the text: as §2, §3, §4, §5

HaCaT keratinocytes = assay: Cell viability assay (MTT); format: cell-based, human
From the text: as §2, §3, §4, §5

[9] = system: MCF-10A breast epithelial cells; assay: Cell viability assay (MTT); format: cell-based, human; conditions: MCF10A
From the text: as §2, §3, §4, §5

[10] = system: MCF-7 breast cancer cells; assay: Cell viability assay (MTT); format: cell-based, human
From the text: as §2, §3, §4, §5

[11] = system: MDA-MB-231 breast cancer cells; assay: Cell viability assay (MTT); format: cell-based, human
From the text: as §2, §3, §4, §5

SMILES: Cc1c(C)c(O)c2c(c1C)C(C)C(=O)OC2=O (stereo not shown) [Compound 4, sclerin]
- MIC50 (Candida albicans KMM 455 [1]; Candida albicans, KMM455, 18 h, C. albicans, 18 h): > 100 µM
- effect on C. albicans growth (Candida albicans KMM 455 [1]; at / up to 100 µM): did not affect
- MIC50 ([2]; Escherichia coli, 18 h, E. coli): > 100 µM
- effect on E. coli growth ([2]; at / up to 100 µM): did not affect
- MIC50 ([3]; Staphylococcus aureus, ATCC21027, 18 h, S. aureus, 18 h): > 100 µM
- effect on S. aureus growth ([3]; at / up to 100 µM): did not affect
- Biofilm formation, MIC50 (Candida albicans KMM 455 [4]; C. albicans, 18 h): >100 µM
- prevention of C. albicans biofilm formation (Candida albicans KMM 455 [4]; at 100 µM): 20.22 ± 5.24%
- Biofilm formation, MIC50 ([5]; E. coli, 18 h): >100 µM
- effect on E. coli biofilm formation ([5]; at / up to 100 µM): did not affect
- Biofilm formation, MIC50 ([6]; S. aureus, 18 h): >100 µM
- effect on S. aureus biofilm formation ([6]; at / up to 100 µM): did not affect
- IC50 at 24 h ([7]; H9c2, 24 h): > 100 µM
- IC50 at 48 h ([7]; H9c2, 48 h): 57.2 ± 2.4 µM
- cell viability (H9c2 cardiomyocytes; H9c2, 24 h, 1.0 µM): 101.9 ± 5.8 % of control
- cell viability (H9c2 cardiomyocytes; H9c2, 24 h, 10.0 µM): 101.9 ± 6.1 % of control
- cell viability (H9c2 cardiomyocytes; H9c2, 24 h, 100.0 µM): 73.5 ± 4.4 % of control
- cell viability (H9c2 cardiomyocytes; H9c2, 48 h, 1.0 µM): 101.4 ± 5.6 % of control
- cell viability (H9c2 cardiomyocytes; H9c2, 48 h, 10.0 µM): 102.6 ± 7.4 % of control
- cell viability (H9c2 cardiomyocytes; H9c2, 48 h, 100.0 µM): 56.2 ± 0.9 % of control
- IC50 at 24 h ([8]; HaCaT keratinocytes, 24 h): ≥ 100 µM
- IC50 at 48 h ([8]; HaCaT keratinocytes, 48 h): ≥ 100 µM
- IC50 at 24 h ([8]; MCF-7 breast cancer cells, MCF-7, 24 h): > 100 µM
- IC50 at 48 h ([8]; MCF-7 breast cancer cells, MCF-7, 48 h): > 100 µM
- IC50 at 24 h ([8]; MCF-10A breast epithelial cells, MCF10A, 24 h): 93.4 ± 3.5 µM
- IC50 at 48 h ([8]; MCF-10A breast epithelial cells, MCF10A, 48 h): > 100 µM
- IC50 at 24 h ([8]; MDA-MB-231 breast cancer cells, MDA-MB-231, 24 h): > 100 µM
- IC50 at 48 h ([8]; MDA-MB-231 breast cancer cells, MDA-MB-231, 48 h): 94.1 ± 3.2 µM
- cell viability (HaCaT keratinocytes; 24 h, 1.0 µM): 100.2 ± 6.6 % of control
- cell viability (HaCaT keratinocytes; 24 h, 10.0 µM): 94.7 ± 5.0 % of control
- cell viability (HaCaT keratinocytes; 24 h, 100.0 µM): 49.5 ± 6.0 % of control
- cell viability (HaCaT keratinocytes; 48 h, 1.0 µM): 96.4 ± 1.4 % of control
- cell viability (HaCaT keratinocytes; 48 h, 10.0 µM): 72.1 ± 11.1 % of control
- cell viability (HaCaT keratinocytes; 48 h, 100.0 µM): 51.5 ± 2.1 % of control
- cell viability ([9]; 24 h, 1.0 µM): 90.8 ± 7.8 % of control
- cell viability ([9]; 24 h, 10.0 µM): 88.6 ± 5.2 % of control
- cell viability ([9]; 24 h, 100.0 µM): 47.0 ± 3.2 % of control
- cell viability ([9]; 48 h, 1.0 µM): 98.0 ± 4.0 % of control
- cell viability ([9]; 48 h, 10.0 µM): 96.8 ± 2.1 % of control
- cell viability ([9]; 48 h, 100.0 µM): 73.5 ± 1.1 % of control
- cell viability ([10]; MCF-7, 24 h, 1.0 µM): 104.3 ± 4.6 % of control
- cell viability ([10]; MCF-7, 24 h, 10.0 µM): 103.4 ± 5.4 % of control
- cell viability ([10]; MCF-7, 24 h, 100.0 µM): 68.3 ± 4.5 % of control
- cell viability ([10]; MCF-7, 48 h, 1.0 µM): 88.5 ± 4.7 % of control
- cell viability ([10]; MCF-7, 48 h, 10.0 µM): 95.9 ± 3.5 % of control
- cell viability ([10]; MCF-7, 48 h, 100.0 µM): 74.1 ± 4.5 % of control
- cell viability ([11]; MDA-MB-231, 24 h, 1.0 µM): 94.8 ± 4.2 % of control
- cell viability ([11]; MDA-MB-231, 24 h, 10.0 µM): 102.7 ± 4.9 % of control
- cell viability ([11]; MDA-MB-231, 24 h, 100.0 µM): 63.1 ±1.6 % of control
- cell viability ([11]; MDA-MB-231, 48 h, 1.0 µM): 94.3 ± 3.9 % of control
- cell viability ([11]; MDA-MB-231, 48 h, 10.0 µM): 91.8 ± 7.5 % of control
- cell viability ([11]; MDA-MB-231, 48 h, 100.0 µM): 47.1 ± 6.2 % of control
